Each compound was assayed against GST-Bcl-2 (Homo sapiens (Human), UniProt P10415) (assay: Time Resolved-Fluorescence Resonance Energy Transfer (TR-FRET) Bcl-2 binding assay). Conditions: GST-Bcl-2 1 nM, F-Bak peptide probe 100 nM, Tb-anti-GST antibody 1 nM; Ki by Wang's equation.
Summary of the method: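 Ki values derived from TR-FRET displacement of F-Bak peptide from GST-Bcl-2, detected with Tb-labelled anti-GST antibody (ex 340, em 520/495 nm). Compound dilution series started at 50 μM (2× starting concentration); room-temperature incubation 3 hours.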

Chain of GST-Bcl-2 (P10415 whole entry): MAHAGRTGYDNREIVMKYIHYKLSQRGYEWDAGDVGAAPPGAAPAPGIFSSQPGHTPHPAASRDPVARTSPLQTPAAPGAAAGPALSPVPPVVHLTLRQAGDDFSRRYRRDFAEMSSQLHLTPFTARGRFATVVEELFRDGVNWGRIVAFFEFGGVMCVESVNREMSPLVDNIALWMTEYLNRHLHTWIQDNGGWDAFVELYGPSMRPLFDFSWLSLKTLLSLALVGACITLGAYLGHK

SMILES	Ki [nM]
CN1CCC(Nc2ccc(S(=O)(=O)NC(=O)c3ccc(N4CCN(CC5=C(c6ccc(Cl)cc6)CC(C)(C)CC5)CC4)cc3Oc3cnc(N)c(Cl)c3)cc2S(=O)(=O)C(F)(F)F)CC1 [Example 354, 2-[(6-amino-5-chloropyridin-3-yl)oxy]-4-(4-{[2-(4-chlorophenyl)-4,4-dimethylcyclohex-1-en-1-yl]methyl}piperazin-1-yl)-N-({4-[(1-methylpiperidin-4-yl)amino]-3-[(trifluoromethyl)sulfonyl]phenyl}sulfonyl)benzamide]	0.114
CN1CCC(Nc2ccc(S(=O)(=O)NC(=O)c3ccc(N4CCN(CC5=C(c6ccc(Cl)cc6)CC(C)(C)CC5)CC4)cc3Oc3cccc(F)c3Cl)cc2[N+](=O)[O-])CC1 [Example 177, 2-(2-chloro-3-fluorophenoxy)-4-(4-{[2-(4-chlorophenyl)-4,4-dimethylcyclohex-1-en-1-yl]methyl}piperazin-1-yl)-N-({4-[(1-methylpiperidin-4-yl)amino]-3-nitrophenyl}sulfonyl)benzamide]	0.037
CC1(C)CCC(CN2CCN(c3ccc(C(=O)NS(=O)(=O)c4ccc(NCCCN5CCOCC5)c([N+](=O)[O-])c4)c(Oc4cccc(Cl)c4F)c3)CC2)=C(c2ccc(Cl)cc2)C1 [Example 148, 2-(3-chloro-2-fluorophenoxy)-4-(4-{[2-(4-chlorophenyl)-4,4-dimethylcyclohex-1-en-1-yl]methyl}piperazin-1-yl)-N-({4-[(3-morpholin-4-ylpropyl)amino]-3-nitrophenyl}sulfonyl)benzamide]	0.106
CC1(C)CCC(CN2CCN(c3ccc(C(=O)NS(=O)(=O)c4ccc(NC5CCN(CCF)CC5)c([N+](=O)[O-])c4)c(Oc4cccc(F)c4F)c3)CC2)=C(c2ccc(Cl)cc2)C1 [Example 140, 4-(4-{[2-(4-chlorophenyl)-4,4-dimethylcyclohex-1-en-1-yl]methyl}piperazin-1-yl)-2-(2,3-difluorophenoxy)-N-[(4-{[1-(2-fluoroethyl)piperidin-4-yl]amino}-3-nitrophenyl)sulfonyl]benzamide]	0.223
CC1(C)CCC(CN2CCN(c3ccc(C(=O)NS(=O)(=O)c4ccc(NCC5CCOCC5)c([N+](=O)[O-])c4)c(Oc4cc(N)cc(Cl)c4)c3)CC2)=C(c2ccc(Cl)cc2)C1 [Example 309, 2-(3-amino-5-chlorophenoxy)-4-(4-{[2-(4-chlorophenyl)-4,4-dimethylcyclohex-1-en-1-yl]methyl}piperazin-1-yl)-N-({3-nitro-4-[(tetrahydro-2H-pyran-4-ylmethyl)amino]phenyl}sulfonyl)benzamide]	0.69
CN1CCN(Nc2ccc(S(=O)(=O)NC(=O)c3ccc(N4CCN(CC5=C(c6ccc(Cl)cc6)CC(C)(C)CC5)CC4)cc3Oc3cccc4c3CC(=O)N4)cc2[N+](=O)[O-])CC1 [Example 287, 4-(4-{[2-(4-chlorophenyl)-4,4-dimethylcyclohex-1-en-1-yl]methyl}piperazin-1-yl)-N-({4-[(4-methylpiperazin-1-yl)amino]-3-nitrophenyl}sulfonyl)-2-[(2-oxo-2,3-dihydro-1H-indol-4-yl)oxy]benzamide]	0.131
CC1(C)CCC(CN2CCN(c3ccc(C(=O)NS(=O)(=O)c4cnc(OCC5CCC(F)(F)CC5)c(Cl)c4)c(Oc4cnc(N)c(Cl)c4)c3)CC2)=C(c2ccc(Cl)cc2)C1 [Example 409, 2-[(6-amino-5-chloropyridin-3-yl)oxy]-N-({5-chloro-6-[(4,4-difluorocyclohexyl)methoxy]pyridin-3-yl}sulfonyl)-4-(4-{[2-(4-chlorophenyl)-4,4-dimethylcyclohex-1-en-1-yl]methyl}piperazin-1-yl)benzamide]	0.686
CC1(C)CCC(CN2CCN(c3ccc(C(=O)NS(=O)(=O)c4ccc(NCC5CCOCC5)c([N+](=O)[O-])c4)c(Oc4ccc5c(c4)CC(=O)N5)c3)CC2)=C(c2ccc(Cl)cc2)C1 [Example 267, 4-(4-{[2-(4-chlorophenyl)-4,4-dimethylcyclohex-1-en-1-yl]methyl}piperazin-1-yl)-N-({3-nitro-4-[(tetrahydro-2H-pyran-4-ylmethyl)amino]phenyl}sulfonyl)-2-[(2-oxo-2,3-dihydro-1H-indol-5-yl)oxy]benzamide]	28.4
CN1CCC(Nc2ccc(S(=O)(=O)NC(=O)c3ccc(N4CCN(CC5=C(c6ccc(Cl)cc6)CC(C)(C)CC5)CC4)cc3Oc3cccc4c3ccn4C(=O)OC(C)(C)C)cc2[N+](=O)[O-])CC1 [Example 202, tert-butyl 4-(5-(4-{[2-(4-chlorophenyl)-4,4-dimethylcyclohex-1-en-1-yl]methyl}piperazin-1-yl)-2-{[({4-[(1-methylpiperidin-4-yl)amino]-3-nitrophenyl}sulfonyl)amino]carbonyl}phenoxy)-1H-indole-1-carboxylate]	20
CC1(C)CCC(CN2CCN(c3ccc(C(=O)NS(=O)(=O)c4ccc(NC5CCN(C6CC6)CC5)c([N+](=O)[O-])c4)c(Oc4cc5cc[nH]c5cc4F)c3)CC2)=C(c2ccc(Cl)cc2)C1 [Example 327, 4-(4-{[2-(4-chlorophenyl)-4,4-dimethylcyclohex-1-en-1-yl]methyl}piperazin-1-yl)-N-({4-[(1-cyclopropylpiperidin-4-yl)amino]-3-nitrophenyl}sulfonyl)-2-[(6-fluoro-1H-indol-5-yl)oxy]benzamide]	0.212
CC1(C)CCC(CN2CCN(c3ccc(C(=O)NS(=O)(=O)c4ccc(NCCN5CCOCC5)c([N+](=O)[O-])c4)c(Oc4cccc(Cl)c4F)c3)CC2)=C(c2ccc(Cl)cc2)C1 [Example 150, 2-(3-chloro-2-fluorophenoxy)-4-(4-{[2-(4-chlorophenyl)-4,4-dimethylcyclohex-1-en-1-yl]methyl}piperazin-1-yl)-N-({4-[(2-morpholin-4-ylethyl)amino]-3-nitrophenyl}sulfonyl)benzamide]	0.759
CC1(C)CCC(CN2CCN(c3ccc(C(=O)NS(=O)(=O)c4ccc(NC5CCN(C6CC6)CC5)c([N+](=O)[O-])c4)c(Oc4cccc(F)c4)c3)CC2)=C(c2ccc(Cl)cc2)C1 [Example 132, 4-(4-{[2-(4-chlorophenyl)-4,4-dimethylcyclohex-1-en-1-yl]methyl}piperazin-1-yl)-N-({4-[(1-cyclopropylpiperidin-4-yl)amino]-3-nitrophenyl}sulfonyl)-2-(3-fluorophenoxy)benzamide]	0.211
O=C(NS(=O)(=O)c1ccc(NCCCN2CCOCC2)c([N+](=O)[O-])c1)c1ccc(N2CCN(Cc3ccccc3-c3ccc(Cl)cc3)CC2)cc1Oc1ccc(Cl)cc1 [Example 13, 4-(4-((4′-chloro-1,1′-biphenyl-2-yl)methyl)piperazin-1-yl)-2-(4-chlorophenoxy)-N-((4-((3-morpholin-4-ylpropyl)amino)-3-nitrophenyl)sulfonyl)benzamide]	1.62
CC1(C)CCC(CN2CCN(c3ccc(C(=O)NS(=O)(=O)c4ccc(NCC5COCCO5)c([N+](=O)[O-])c4)c(Oc4cnc(N)c(Br)c4)c3)CC2)=C(c2ccc(Cl)cc2)C1 (centres unmarked) [Example 361, 2-[(6-amino-5-bromopyridin-3-yl)oxy]-4-(4-{[2-(4-chlorophenyl)-4,4-dimethylcyclohex-1-en-1-yl]methyl}piperazin-1-yl)-N-({4-[(1,4-dioxan-2-ylmethyl)amino]-3-nitrophenyl}sulfonyl)benzamide]	0.015
CN1CCC(Nc2ccc(S(=O)(=O)NC(=O)c3ccc(N4CCN(CC5=C(c6ccc(Cl)cc6)CC(C)(C)CC5)CC4)cc3Oc3cccc(C(F)(F)F)c3Cl)cc2[N+](=O)[O-])CC1 [Example 64, 4-(4-((2-(4-chlorophenyl)-4,4-dimethylcyclohex-1-en-1-yl)methyl)piperazin-1-yl)-2-(2-chloro-3-(trifluoromethyl)phenoxy)-N-((4-((1-methylpiperidin-4-yl)amino)-3-nitrophenyl)sulfonyl)benzamide]	0.458
CC1(C)CCC(CN2CCN(c3ccc(C(=O)NS(=O)(=O)c4ccc(NC5CCN(C6CCOCC6)CC5)c([N+](=O)[O-])c4)c(Oc4cccc(F)c4Cl)c3)CC2)=C(c2ccc(Cl)cc2)C1 [Example 178, 2-(2-chloro-3-fluorophenoxy)-4-(4-{[2-(4-chlorophenyl)-4,4-dimethylcyclohex-1-en-1-yl]methyl}piperazin-1-yl)-N-({3-nitro-4-[(1-tetrahydro-2H-pyran-4-ylpiperidin-4-yl)amino]phenyl}sulfonyl)benzamide]	0.175
CN(C)C(=O)COc1cccc(Oc2cc(N3CCN(Cc4ccccc4-c4ccc(Cl)cc4)CC3)ccc2C(=O)NS(=O)(=O)c2ccc(NCC3CCOCC3)c([N+](=O)[O-])c2)c1 [Example 105, 4-(4-((4′-chloro-1,1′-biphenyl-2-yl)methyl)piperazin-1-yl)-2-(3-(2-(dimethylamino)-2-oxoethoxy)phenoxy)-N-((3-nitro-4-((tetrahydro-2H-pyran-4-ylmethyl)amino)phenyl)sulfonyl)benzamide]	3.57
CN1CCN(Nc2ccc(S(=O)(=O)NC(=O)c3ccc(N4CCN(CC5=C(c6ccc(Cl)cc6)CC(C)(C)CC5)CC4)cc3Oc3cnc(N)c(Cl)c3)cc2[N+](=O)[O-])CC1 [Example 343, 2-[(6-amino-5-chloropyridin-3-yl)oxy]-4-(4-{[2-(4-chlorophenyl)-4,4-dimethylcyclohex-1-en-1-yl]methyl}piperazin-1-yl)-N-({4-[(4-methylpiperazin-1-yl)amino]-3-nitrophenyl}sulfonyl)benzamide]	0.009
CC1(C)CCC(CN2CCN(c3ccc(C(=O)NS(=O)(=O)c4ccc(NCCN5CCOCC5)c([N+](=O)[O-])c4)c(Oc4cccc(Cl)c4)c3)CC2)=C(c2ccc(Cl)cc2)C1 [Example 141, 2-(3-chlorophenoxy)-4-(4-{[2-(4-chlorophenyl)-4,4-dimethylcyclohex-1-en-1-yl]methyl}piperazin-1-yl)-N-({4-[(2-morpholin-4-ylethyl)amino]-3-nitrophenyl}sulfonyl)benzamide]	0.482
CC1(C)CCC(CN2CCN(c3ccc(C(=O)NS(=O)(=O)c4ccc(NCC5CCOCC5)c([N+](=O)[O-])c4)c(Oc4cnc(N)c(C(N)=O)c4)c3)CC2)=C(c2ccc(Cl)cc2)C1 [Example 351, 2-amino-5-(5-(4-{[2-(4-chlorophenyl)-4,4-dimethylcyclohex-1-en-1-yl]methyl}piperazin-1-yl)-2-{[({3-nitro-4-[(tetrahydro-2H-pyran-4-ylmethyl)amino]phenyl}sulfonyl)amino]carbonyl}phenoxy)nicotinamide]	2.84
